In assay [1] the test system is soybean seeds. Description: Seed germination assay (soybean seeds in Petri dishes, radicle emergence counted). It counts as in vivo. Conditions: control 24%; for percent germination of treated soybean seeds: 10^-7 M in DI-water, at 20 h, dark, room temperature; for Germination Yield: summary table, 10^-7 M, 20 h. As to the method: Materials were all sterilized before use. An aqueous solution of the test compound (25 mL, 10^−7 M in DI-water) was prepared for a set of five repeat experiments. Five Petri dishes and 100 soybean seeds were used to test one compound. A piece of Whatman filter paper was used to cover the inner side of each Petri dish to allow uniform distribution of testing solution. Twenty soybean seeds were placed on the filter paper area of one Petri dish. Five mL of the test compound solution was carefully poured in the Petri dish. Control experiments were set up the same way with 20 soybean seeds and 5 mL of DI-water per dish without any compounds. The lid was placed on the Petri dish and sealed with Parafilm. Five dishes with repeat experiments were stacked. One stack of dishes was wrapped twice with aluminum foil to prevent the seeds from receiving any light. The stacks were transferred to an incubator maintained at room temperature and the seeds were germinated in the dark. After 20 h, the stacks were pulled out for measurement. The number of germinated seeds was counted and the percent germination on each dish was calculated. Radicle emergence was used as the germination indicator. The dishes were placed unwrapped at room temperature for one day and the number of germinated seeds was counted to ensure seeds were viable and that the germination results were not caused by poor seed quality. Dishes in which over 90% of the seeds germinated were considered normal. The standard deviation of five repeats was calculated. Test results with a 10% or lower standard deviation were considered good. Compounds acting as plant performance enhancers should promote a statistically significant increase in average percentage of germination compared to the control.

Assay [2] concerns soybean seeds. Nature of the assay: Plant growth assay (radical length of germinated soybean seeds). It counts as in vivo. Conditions: control 55%; for percentage of germinated soybean seeds with radical length greater than 1.5 cm: 10^-7 M, germinated 24 h, then light for additional 40 h; for Growth Assay: summary table, seeds with radical length > 1.5 cm. Here is the method: Seeds germinated for 24 h using the seed germination assay above were exposed to light for an additional 40 h. The radical length was measured and the percentage of germinating seeds with a radical length greater than 1.5 cm was determined.

Regarding `COC1OC(CO)C(O)C(O)C1NC(=O)CNC(=O)C#Cc1ccccc1` [Compound 19, Methyl 2-deoxy-2-N-({[(3-phenylprop-2-ynoyl)amino]acetyl}amino)-β-D-glucopyranoside], in assay [1], the “percent germination of treated soybean seeds” value (from here on “percent germination”) turned out to be 30% and the “Germination Yield” value is 30%. Moreover, in assay [2], the “percentage of germinated soybean seeds with radical length greater than 1.5 cm” value (“percentage of germinated soybean seeds” below) is 71% and the “Growth Assay” value turned out to be 71%.

On to `CCCCCC/C=C\CCCCCCCC(=O)NCC(=O)NC1C(OC)OC(CO)C(O)C1O` [Compound 9, Methyl 2-deoxy-2-N-({[(9Z)-hexadec-9-enoylamino]acetyl}amino)-β-D-glucopyranoside], for which, in assay [1], the “percent germination” value came out at 33% and the “Germination Yield” value amounted to 33%. Further, in assay [2], the “percentage of germinated soybean seeds” value came to 73% and the “Growth Assay” value amounted to 73%.

On to `CCCCCC/C=C\CCCCCCC/C=C/C(=O)NCC(=O)NC1C(OC)OC(CO)C(O)C1O` (centres unmarked) [Compound 7, methyl 2-deoxy-2-({[(2E,11Z)-octadeca-2,11-dienoylamino]acetyl}amino)hexopyranoside], for which, in assay [1], the “percent germination” value is on record as 46% and the “Germination Yield” value is given as 46%. In addition, in assay [2], the “percentage of germinated soybean seeds” value came to 79% and the “Growth Assay” value is reported as 79%.

With `CO[C@@H]1O[C@H](CO)[C@@H](O)[C@H](O)[C@H]1NC(=O)CNC(=O)/C=C/C=C/c1ccccc1` [Compound 11, methyl 2-deoxy-2-[({[(2E,4E)-5-phenylpenta-2,4-dienoyl]amino}acetyl)amino]-β-D-glucopyranoside], in assay [1], the “percent germination” value was found to be 39% and the “Germination Yield” value came out at 39%. In assay [2], the “percentage of germinated soybean seeds” value is 82% and the “Growth Assay” value turned out to be 82%.

Regarding `COC(=O)C(CCC(=O)NC1C(OC)OC(CO)C(O)C1O)NC(=O)/C=C/C=C/c1ccccc1` (centres unmarked) [Compound 15, methyl 5-{[4,5-dihydroxy-6-(hydroxymethyl)-2-methoxytetrahydro-2H-pyran-3-yl]amino}-5-oxo-2-{[(2E,4E)-5-phenylpenta-2,4-dienoyl]amino}pentanoate], in assay [1], the “percent germination” value is given as 31% and the “Germination Yield” value was 31%. In addition, in assay [2], the “percentage of germinated soybean seeds” value was found to be 74% and the “Growth Assay” value is recorded as 74%.

As for `CO[C@@H]1O[C@H](CO)[C@@H](O)[C@H](O)[C@H]1NC(=O)CNC(=O)/C=C/c1cccc(C(F)(F)F)c1` [Compound 17, methyl 2-deoxy-2-{[({(2E)-3-[3-(trifluoromethyl)phenyl]prop-2-enoyl}amino)acetyl]amino}-β-D-glucopyranoside], in assay [1], the “percent germination” value stood at 44% and the “Germination Yield” value is listed as 44%. For the same compound, in assay [2], the “percentage of germinated soybean seeds” value is reported as 86% and the “Growth Assay” value stood at 86%.

In the case of `CCCCCC/C=C/CCCCCCC/C=C/C(=O)NCC(=O)NC1C(OC2C(CO)OC(OC3C(CO)OC(OC4C(CO)OC(OC)C(NC(C)=O)C4O)C(NC(C)=O)C3O)C(NC(C)=O)C2O)OC(CO)C(O)C1O` [Compound 21, Methyl 2-deoxy-2-N-({[(2E,11E)-octadeca-2,11-dienoylamino]acetyl}amino)β-D-glucopyranosyl(1→4)-2-acetamido-2-deoxy-β-D-glucopyranosyl-(1→4)-2 acetamido-2-deoxy-β-D-glucopyranosyl-(1→4)-2 acetamido-2-deoxy-β-D-glucopyranoside], in assay [1], the “percent germination” value came to 36% and the “Germination Yield” value was 36%. Besides, in assay [2], the “percentage of germinated soybean seeds” value worked out at 73% and the “Growth Assay” value came to 73%.

With `CO[C@@H]1O[C@H](CO)[C@@H](O)[C@H](O)[C@H]1NC(=O)[C@H](Cc1ccccc1)NC(=O)/C=C/C=C/c1ccccc1` [Compound 13, Methyl 2-deoxy-2-({N-[(2E,4E)-5-phenylpenta-2,4-dienoyl]phenylalanyl}amino)-β-D-glucopyranoside], in assay [1], the “percent germination” value came out at 32% and the “Germination Yield” value is given as 32%. Further, in assay [2], the “percentage of germinated soybean seeds” value is 80% and the “Growth Assay” value is reported as 80%.
